pIC50: −log10 of the molar value. Where no end group is shown, it is not given here.
Key:
Assay in all cases: biochemical
Type in all cases: binding
DRB1*0101 = biological target: T1, DRB1*0101 (Homo sapiens, UniProt P01903+P01911, A100R/D57E/F55L/F60I/F76Y/I96L/L162R/M171V/P40L/Q125E/R42F/V115G/Y59C); conditions: IC50 nM to purified HLA DRB1*0101
T1 construct: made in house; host or cells: EBV-transformed homozygous human B cell lines, transfected fibroblasts or single-allele 721.221 transfectants

DRB1*0401 = biological target: T2, DRB1*0401 (Homo sapiens, UniProt P01903+P01911, A100K/A169T/F76Y/I96L/K127E/L162R/M171V/N62H/P40V/Q125Y/R42H/S133A/S149N/S66Y/V115G/V209L/W38E); conditions: read-out: IC50 nM to purified HLA DRB1*0401
T2 construct: made in house; host or cells: EBV-transformed homozygous human B cell lines, transfected fibroblasts or single-allele 721.221 transfectants

DRB1*1302 = DRB1*1302 (Homo sapiens, UniProt P01903+P01911, A100E/A169T/K41T/L162R/M171V/P40S/Q125H/Q178H/Q39Y/Q99D/R42S/S66N/T262R/V115G/W38E/Y61H); conditions: read-out: IC50 nM to purified HLA DRB1*1302
Chain of DRB1*1302 (P01903 26-254 limits assumed, other chains not shown): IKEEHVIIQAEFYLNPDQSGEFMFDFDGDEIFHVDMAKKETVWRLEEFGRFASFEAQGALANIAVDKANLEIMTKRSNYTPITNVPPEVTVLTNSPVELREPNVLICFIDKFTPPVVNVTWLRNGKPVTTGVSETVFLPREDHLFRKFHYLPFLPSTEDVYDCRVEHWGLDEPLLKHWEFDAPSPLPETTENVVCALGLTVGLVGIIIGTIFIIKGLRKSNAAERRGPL

DRB1*1501 = biological target: T3, DRB1*1501 (Homo sapiens, UniProt P01903+P01911); conditions: read-out: IC50 nM to purified HLA DRB1*1501
T3 construct: made in house; host or cells: EBV-transformed homozygous human B cell lines, transfected fibroblasts or single-allele 721.221 transfectants

DRB1*0301 = biological target: T4, DRB1*0301 (Homo sapiens, UniProt P01903+P01911, A100K/A102G/A103R/A169T/F55Y/I96L/K41T/L162R/M171V/P40S/Q125H/Q178H/Q39Y/R42S/S66N/T106N/T262R/W38E/Y61H)
T4 construct: made in house; host or cells: EBV-transformed homozygous human B cell lines, transfected fibroblasts or single-allele 721.221 transfectants
T4 sequence (P01903 26-254, other chains not shown): as the sequence (P01903 26-254 limits assumed, other chains not shown) above

Row | Compound | IC50 (DRB1*0101) | IC50 (DRB1*0401) | IC50 (DRB1*1302) | IC50 (DRB1*1501) | pIC50 (DRB1*0301)
1 | CC[C@H](C)[C@H](NC(=O)[C@H](CC(C)C)NC(=O)[C@H](Cc1c[nH]c2ccccc12)NC(=O)[C@@H](NC(=O)[C@@H](NC(=O)[C@H](CC(N)=O)NC(=O)[C@H](CCCNC(=N)N)NC(=O)[C@H](Cc1ccccc1)NC(=O)[C@H](Cc1ccccc1)NC(=O)[C@H](CO)NC(=O)[C@H](CO)NC(=O)[C@@H](N)CCCCN)C(C)C)C(C)C)C(=O)N[C@@H](CCCCN)C(=O)N[C@@H](CCCCN)C(=O)N[C@@H](CC(N)=O)C(=O)O [Flu.HA.156] | 46 nM | 474 nM | 20 nM | 832 nM | –
2 | CC[C@H](C)[C@H](NC(=O)[C@H](Cc1ccc(O)cc1)NC(=O)[C@@H](NC(=O)[C@@H](NC(=O)[C@@H]1CCCN1C(=O)[C@H](CC(N)=O)NC(=O)[C@H](CCC(N)=O)NC(=O)[C@H](Cc1ccc(O)cc1)NC(=O)[C@H](CC(C)C)NC(=O)[C@H](CCCCN)NC(=O)[C@@H](NC(=O)[C@@H](N)CCC(N)=O)[C@@H](C)O)[C@@H](C)O)[C@@H](C)O)C(=O)N[C@@H](CO)C(=O)N[C@H](C(=O)NCC(=O)N[C@H](C(=O)O)[C@@H](C)O)C(C)C [Flu.HA.203] | – | – | 18 nM | 60 nM | –
3 | CC[C@H](C)[C@H](NC(=O)[C@H](Cc1ccc(O)cc1)NC(=O)[C@@H](NC(=O)[C@@H](NC(=O)[C@@H]1CCCN1)[C@@H](C)O)[C@@H](C)O)C(=O)N[C@@H](CO)C(=O)N[C@H](C(=O)NCC(=O)N[C@H](C(=O)N[C@@H](CO)C(=O)N[C@H](C(=O)N[C@@H](CC(C)C)C(=O)N[C@@H](CC(N)=O)C(=O)N[C@@H](CCC(N)=O)C(=O)N[C@@H](CCCNC(=N)N)C(=O)N[C@@H](CC(C)C)C(=O)O)[C@@H](C)O)[C@@H](C)O)C(C)C [Flu.HA.210] | 190 nM | 59 nM | 957 nM | – | –
4 | CC[C@H](C)[C@H](NC(=O)[C@H](C)NC(=O)[C@H](CC(=O)O)NC(=O)[C@H](CC(N)=O)NC(=O)[C@@H]1CCCN1C(=O)[C@H](CCCCN)NC(=O)[C@H](CC(C)C)NC(=O)[C@@H](NC(=O)[C@@H](NC(=O)[C@@H](N)Cc1c[nH]c2ccccc12)[C@@H](C)O)[C@@H](C)CC)C(=O)N[C@@H](CC(N)=O)C(=O)N[C@@H](Cc1ccccc1)C(=O)N[C@@H](CCC(=O)O)C(=O)N[C@@H](CO)C(=O)N[C@@H](CC(N)=O)C(=O)O [Flu.HA.246] | – | – | 31 nM | – | –
5 | CSCC[C@H](NC(=O)[C@H](CC(C)C)NC(=O)[C@@H](NC(=O)[C@H](CC(C)C)NC(=O)[C@@H](N)CC(C)C)C(C)C)C(=O)N[C@@H](CCC(=O)O)C(=O)N[C@@H](CC(N)=O)C(=O)N[C@@H](CCC(=O)O)C(=O)N[C@@H](CCCNC(=N)N)C(=O)N[C@H](C(=O)N[C@@H](CC(C)C)C(=O)N[C@@H](CC(=O)O)C(=O)N[C@@H](Cc1ccccc1)C(=O)N[C@@H](Cc1c[nH]cn1)C(=O)N[C@@H](CC(=O)O)C(=O)O)[C@@H](C)O [Flu.HA.444] | – | – | – | – | 7.19
6 | CC[C@H](C)[C@H](N)C(=O)NCC(=O)N[C@@H](CC(N)=O)C(=O)N[C@@H](CCSC)C(=O)N[C@H](C(=O)N[C@@H](CO)C(=O)N[C@H](C(=O)N[C@@H](Cc1c[nH]c2ccccc12)C(=O)N[C@H](C(=O)N[C@@H](CO)C(=O)N[C@@H](Cc1c[nH]cn1)C(=O)N[C@@H](CO)C(=O)N[C@H](C(=O)N[C@@H](Cc1c[nH]cn1)C(=O)N[C@H](C(=O)NCC(=O)O)[C@@H](C)O)[C@@H](C)CC)C(C)C)[C@@H](C)CC)[C@@H](C)CC [Flu.NA.26] | 1050 nM | – | 5950 nM | 81 nM | –
7 | CC(C)C[C@H](NC(=O)[C@H](CCCCN)NC(=O)[C@@H](NC(=O)[C@H](CO)NC(=O)[C@H](C)NC(=O)[C@@H](NC(=O)[C@H](C)NC(=O)[C@H](CCCCN)NC(=O)[C@H](CCC(=O)O)NC(=O)[C@@H](NC(=O)[C@H](CC(C)C)NC(=O)[C@H](Cc1ccccc1)NC(=O)[C@H](CC(N)=O)NC(=O)[C@@H](NC(=O)[C@@H](N)CC(N)=O)[C@@H](C)O)[C@@H](C)O)C(C)C)C(C)C)C(=O)N[C@@H](C)C(=O)O [Flu.NA.51] | – | – | – | 47 nM | –
8 | CC(C)C[C@H](NC(=O)[C@H](C)NC(=O)CNC(=O)[C@H](CCC(N)=O)NC(=O)[C@@H](NC(=O)[C@H](CC(C)C)NC(=O)[C@H](Cc1ccccc1)NC(=O)[C@H](Cc1ccccc1)NC(=O)[C@@H](NC(=O)[C@@H](N)CCCNC(=N)N)[C@@H](C)O)[C@@H](C)O)C(=O)N[C@@H](CC(C)C)C(=O)N[C@@H](CC(N)=O)C(=O)N[C@@H](CC(=O)O)C(=O)N[C@@H](CCCCN)C(=O)N[C@@H](Cc1c[nH]cn1)C(=O)N[C@@H](CO)C(=O)O [Flu.NA.110] | 16 nM | 251 nM | 3210 nM | 790 nM | –
9 | CC[C@H](C)[C@H](NC(=O)CNC(=O)[C@H](CC(N)=O)NC(=O)[C@H](Cc1ccc(O)cc1)NC(=O)[C@H](CCCCN)NC(=O)[C@H](CC(C)C)NC(=O)[C@@H](NC(=O)[C@H](C)NC(=O)[C@@H](N)C(C)C)C(C)C)C(=O)N[C@H](C(=O)N[C@H](C(=O)N[C@@H](CC(=O)O)C(=O)N[C@H](C(=O)N[C@H](C(=O)N[C@@H](CCCCN)C(=O)N[C@@H](CO)C(=O)N[C@@H](Cc1c[nH]c2ccccc12)C(=O)O)[C@@H](C)CC)[C@@H](C)O)[C@@H](C)O)[C@@H](C)CC [Flu.NA.183] | 3390 nM | 319 nM | – | 19 nM | –
10 | CC[C@H](C)[C@H](NC(=O)[C@H](CC(N)=O)NC(=O)[C@H](CC(N)=O)NC(=O)[C@H](CCCNC(=N)N)NC(=O)[C@H](Cc1c[nH]c2ccccc12)NC(=O)[C@H](CO)NC(=O)[C@H](CCCCN)NC(=O)[C@@H](NC(=O)[C@@H](NC(=O)[C@H](CC(=O)O)NC(=O)[C@@H](NC(=O)[C@@H](NC(=O)[C@@H](NC(=O)CNC(=O)[C@H](CC(N)=O)NC(=O)[C@@H](N)Cc1ccc(O)cc1)[C@@H](C)CC)[C@@H](C)CC)[C@@H](C)O)[C@@H](C)O)[C@@H](C)CC)C(=O)O [Flu.NA.188] | – | – | 370 nM | 31 nM | –
11 | CC[C@H](C)[C@H](NC(=O)[C@@H](NC(=O)[C@H](CCSC)NC(=O)[C@H](CC(=O)O)NC(=O)[C@@H](NC(=O)[C@H](CC(C)C)NC(=O)[C@H](Cc1ccc(O)cc1)NC(=O)[C@H](CCCNC(=N)N)NC(=O)[C@H](CO)NC(=O)[C@H](C)N)[C@@H](C)O)[C@@H](C)O)C(=O)N[C@@H](CCC(=O)O)C(=O)N[C@@H](CCC(=O)O)C(=O)N[C@@H](CCSC)C(=O)N[C@@H](CO)C(=O)N[C@@H](CCCNC(=N)N)C(=O)O [Flu.NS1.89] | 6030 nM | 67 nM | – | – | –
12 | CC[C@H](C)[C@H](NC(=O)[C@H](CC(C)C)NC(=O)[C@@H](NC(=O)[C@H](CCC(=O)O)NC(=O)[C@H](CC(C)C)NC(=O)[C@H](CCCNC(=N)N)NC(=O)[C@H](CC(=O)O)NC(=O)[C@H](Cc1ccccc1)NC(=O)[C@@H](NC(=O)[C@@H](NC(=O)[C@H](CO)NC(=O)[C@H](Cc1ccccc1)NC(=O)[C@@H](N)CC(N)=O)C(C)C)[C@@H](C)CC)[C@@H](C)O)C(=O)N[C@@H](CC(C)C)C(=O)N[C@@H](CC(C)C)C(=O)O [Flu.NS1.136] | 17 nM | – | – | 6930 nM | –
13 | CC[C@H](C)[C@H](NC(=O)[C@@H](NC(=O)[C@H](CCC(=O)O)NC(=O)[C@H](CCSC)NC(=O)[C@@H](N)[C@@H](C)O)C(C)C)C(=O)N[C@@H](CCC(N)=O)C(=O)N[C@@H](CCC(N)=O)C(=O)N[C@H](C(=O)N[C@@H](CCCNC(=N)N)C(=O)N[C@H](C(=O)N[C@@H](CC(=O)O)C(=O)N[C@@H](CCCCN)C(=O)N[C@@H](CC(C)C)C(=O)N[C@H](C(=O)N[C@@H](CCC(N)=O)C(=O)O)[C@@H](C)O)C(C)C)[C@@H](C)O [Flu.PB1.113] | – | – | 180 nM | – | –
14 | CSCC[C@H](NC(=O)[C@H](CO)NC(=O)[C@H](Cc1ccccc1)NC(=O)[C@H](CC(N)=O)NC(=O)[C@H](C)NC(=O)[C@@H](N)C(C)C)C(=O)N[C@@H](CCC(=O)O)C(=O)N[C@@H](CC(C)C)C(=O)N1CCC[C@H]1C(=O)N[C@@H](CO)C(=O)N[C@@H](Cc1ccccc1)C(=O)NCC(=O)N[C@H](C(=O)N[C@@H](CO)C(=O)NCC(=O)O)C(C)C [Flu.PB1.505] | 20 nM | 17 nM | – | – | –
15 | CC[C@H](C)[C@H](NC(=O)CNC(=O)[C@H](CCCNC(=N)N)NC(=O)[C@H](CCC(N)=O)NC(=O)[C@H](CO)NC(=O)[C@@H](NC(=O)[C@H](CC(N)=O)NC(=O)[C@H](CC(C)C)NC(=O)[C@@H](NC(=O)[C@H](CO)NC(=O)[C@@H](N)CCCNC(=N)N)[C@@H](C)CC)[C@@H](C)O)C(=O)N[C@@H](CC(C)C)C(=O)N[C@@H](CCC(=O)O)C(=O)N[C@@H](CC(=O)O)C(=O)N[C@@H](CCC(=O)O)C(=O)O [Flu.PB1.675] | 94 nM | – | 71 nM | – | –
16 | CC[C@H](C)[C@H](NC(=O)CNC(=O)[C@@H](NC(=O)[C@@H](N)CCSC)[C@@H](C)CC)C(=O)N[C@@H](CC(C)C)C(=O)N1CCC[C@H]1C(=O)N[C@@H](CC(=O)O)C(=O)N[C@@H](CCSC)C(=O)N[C@H](C(=O)N1CCC[C@H]1C(=O)N[C@@H](CO)C(=O)N[C@H](C(=O)N[C@@H](CCC(=O)O)C(=O)N[C@@H](CCSC)C(=O)N[C@@H](CO)C(=O)O)[C@@H](C)O)[C@@H](C)O [Flu.PB2.463] | – | 31 nM | – | – | –
17 | MEWLKTRPILSPLTK [Flu.M1.46] | 52 nM | 528 nM | 3870 nM | 111 nM | –
18 | TRPILSPLTKGILGF [Flu.M1.51] | 423 nM | – | 292 nM | 140 nM | –

— patent US9511134B2, “Inducing immune responses to influenza virus using polypeptide and nucleic acid compositions” (priority 2006, dated 2016)
